Laboratory results from ChEMBL document CHEMBL1201862, “PubChem BioAssay data set” (2004).
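Cells were grown in 96-well plates and exposed to each compound for 48 hours at five concentrations; endpoints were interpolated linearly between bracketing concentrations, or set to the highest concentration if not reached. Abbreviation: GI50, concentration required for 50% inhibition of growth.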 The source made the active and inactive calls. No stated cut-off is given here; in the data, active = GI50 up to about 1.1 µM and inactive = higher.

Assays:
Assay in all cases: growth of human tumour cells (NCI), 48 h
786-0 = tested on: 786-0
A498 = tested on: A498
A549 = tested on: A549
ACHN = tested on: ACHN
CAKI-1 = tested on: CAKI-1
CCRF-CEM = tested on: CCRF-CEM
COLO 205 = tested on: COLO 205
DMS-273 = tested on: DMS-273
EKVX = tested on: EKVX
HCC 2998 = tested on: HCC 2998
HCT-116 = tested on: HCT-116
HL-60 = tested on: HL-60
HOP-18 = tested on: HOP-18
HOP-62 = tested on: HOP-62
HT-29 = tested on: HT-29
IGROV-1 = tested on: IGROV-1
K562 = tested on: K562
KM-20L2 = tested on: KM-20L2
KM12 = tested on: KM12
LOX IMVI = tested on: LOX IMVI
LXFL 529 = tested on: LXFL 529
M14 = tested on: M14
M19-MEL = tested on: M19-MEL
MOLT-4 = tested on: MOLT-4
Malme-3M = tested on: Malme-3M
NCI-H226 = tested on: NCI-H226
NCI-H23 = tested on: NCI-H23
NCI-H460 = tested on: NCI-H460
NCI-H522 = tested on: NCI-H522
OVCAR-3 = tested on: OVCAR-3
OVCAR-4 = tested on: OVCAR-4
OVCAR-5 = tested on: OVCAR-5
OVCAR-8 = tested on: OVCAR-8
RXF 393 = tested on: RXF 393
SF-268 = tested on: SF-268
SF-295 = tested on: SF-295
SF-539 = tested on: SF-539
SK-MEL-28 = tested on: SK-MEL-28
SK-MEL-2 = tested on: SK-MEL-2
SK-OV-3 = tested on: SK-OV-3
SN12C = tested on: SN12C
SNB-19 = tested on: SNB-19
SNB-78 = tested on: SNB-78
SR = tested on: SR
SW-620 = tested on: SW-620
TK-10 = tested on: TK-10
U-251 = tested on: U-251
UACC-257 = tested on: UACC-257
UACC-62 = tested on: UACC-62
UO-31 = tested on: UO-31
XF498 = tested on: XF498
DLD-1 = tested on: DLD-1
DMS-114 = tested on: DMS-114
HCT-15 = tested on: HCT-15
HOP-92 = tested on: HOP-92
MCF7 = tested on: MCF7
NCI/ADR-RES = tested on: NCI/ADR-RES
SK-MEL-5 = tested on: SK-MEL-5
SNB-75 = tested on: SNB-75

Fc1ccccc1C1CC(c2ccc3ccccc3c2)=Nc2ccccc2S1 (stereo not given)
GI50 (786-0): > 100 µM (inactive) | GI50 (A498): > 100 µM (inactive) | GI50 (A549): > 100 µM (inactive) | GI50 (ACHN): > 100 µM (inactive) | GI50 (CAKI-1): > 100 µM (inactive) | GI50 (CCRF-CEM): > 100 µM (inactive) | GI50 (COLO 205): > 100 µM (inactive) | GI50 (DMS-273): > 100 µM (inactive) | GI50 (EKVX): > 100 µM (inactive) | GI50 (HCC 2998): 4.27 µM (inactive) | GI50 (HCT-116): > 100 µM (inactive) | GI50 (HL-60): > 100 µM (inactive) | GI50 (HOP-18): > 100 µM (inactive) | GI50 (HOP-62): > 100 µM (inactive) | GI50 (HT-29): > 100 µM (inactive) | GI50 (IGROV-1): > 100 µM (inactive) | GI50 (K562): > 10 µM (inactive) | GI50 (KM-20L2): > 100 µM (inactive) | GI50 (KM12): > 100 µM (inactive) | GI50 (LOX IMVI): > 100 µM (inactive) | GI50 (LXFL 529): > 100 µM (inactive) | GI50 (M14): > 100 µM (inactive) | GI50 (M19-MEL): > 100 µM (inactive) | GI50 (MOLT-4): > 100 µM (inactive) | GI50 (Malme-3M): > 100 µM (inactive) | GI50 (NCI-H226): > 100 µM (inactive) | GI50 (NCI-H23): > 100 µM (inactive) | GI50 (NCI-H460): > 100 µM (inactive) | GI50 (NCI-H522): > 100 µM (inactive) | GI50 (OVCAR-3): > 100 µM (inactive) | GI50 (OVCAR-4): > 100 µM (inactive) | GI50 (OVCAR-5): > 100 µM (inactive) | GI50 (OVCAR-8): > 100 µM (inactive) | GI50 (RXF 393): > 100 µM (inactive) | GI50 (SF-268): > 100 µM (inactive) | GI50 (SF-295): > 100 µM (inactive) | GI50 (SF-539): > 100 µM (inactive) | GI50 (SK-MEL-28): > 100 µM (inactive) | GI50 (SK-MEL-2): > 100 µM (inactive) | GI50 (SK-OV-3): > 100 µM (inactive) | GI50 (SN12C): > 100 µM (inactive) | GI50 (SNB-19): > 100 µM (inactive) | GI50 (SNB-78): > 100 µM (inactive) | GI50 (SR): > 100 µM (inactive) | GI50 (SW-620): > 100 µM (inactive) | GI50 (TK-10): > 100 µM (inactive) | GI50 (U-251): > 100 µM (inactive) | GI50 (UACC-257): > 100 µM (inactive) | GI50 (UACC-62): > 100 µM (inactive) | GI50 (UO-31): > 100 µM (inactive) | GI50 (XF498): > 100 µM (inactive)

COc1cc(O)c2c(c1)C(=O)c1cc3c(c(O)c1C2=O)C(OC1OC(C)C(O)C(O)C1OC)C(OC)C(C)(O)C3=O (stereo not given)
GI50 (A498): 2.04 µM (inactive) | GI50 (A549): 3.71 µM (inactive) | GI50 (COLO 205): 0.76 µM (active) | GI50 (DLD-1): 2.22 µM (inactive) | GI50 (DMS-114): 1.61 µM (inactive) | GI50 (DMS-273): 0.644 µM (active) | GI50 (EKVX): 2.43 µM (inactive) | GI50 (HCC 2998): 4.23 µM (inactive) | GI50 (HCT-15): 2.32 µM | GI50 (HOP-18): 5.16 µM (inactive) | GI50 (HOP-62): 3.82 µM (inactive) | GI50 (HOP-92): 0.436 µM (active) | GI50 (HT-29): 1.17 µM (inactive) | GI50 (IGROV-1): 2.52 µM (inactive) | GI50 (KM-20L2): 1.1 µM (active) | GI50 (LOX IMVI): 2 µM (inactive) | GI50 (M19-MEL): 0.532 µM (active) | GI50 (MCF7): 2.54 µM (inactive) | GI50 (Malme-3M): 0.893 µM (active) | GI50 (NCI-H226): 3.48 µM (inactive) | GI50 (NCI-H23): 2.06 µM (inactive) | GI50 (NCI-H460): 1.53 µM (inactive) | GI50 (NCI-H522): 1.93 µM (inactive) | GI50 (NCI/ADR-RES): 3.48 µM (inactive) | GI50 (OVCAR-3): 0.439 µM (active) | GI50 (OVCAR-4): 0.476 µM (active) | GI50 (OVCAR-5): 4.43 µM (inactive) | GI50 (RXF 393): 1.22 µM (inactive) | GI50 (SF-268): 2.12 µM (inactive) | GI50 (SF-295): 1.82 µM (inactive) | GI50 (SF-539): 1.85 µM (inactive) | GI50 (SK-MEL-2): 3.65 µM (inactive) | GI50 (SK-MEL-5): 0.865 µM (active) | GI50 (SK-OV-3): 3.2 µM (inactive) | GI50 (SN12C): 1.9 µM (inactive) | GI50 (SNB-19): 2.94 µM (inactive) | GI50 (SNB-75): 3.57 µM (inactive) | GI50 (SNB-78): 3.76 µM (inactive) | GI50 (SW-620): 1.08 µM (active) | GI50 (U-251): 3.39 µM (inactive) | GI50 (UACC-257): 0.723 µM (active) | GI50 (UACC-62): 1.38 µM (inactive) | GI50 (UO-31): 2.09 µM (inactive) | GI50 (XF498): 3.95 µM (inactive)
